Laboratory results: patent US20260078130A1, “NAMPT MODULATORS, PREPARATIONS, AND USES THEREOF” (SIRONAX LTD., priority 2022, published 2026)

Key:
[1] = biological target: T1, human enzyme NAMPT (full length) (Homo sapiens, UniProt P43490); assay: NMN fluorescence biochemical assay (stimulation of NMN synthesis by NAMPT); settings: for EC50: NMN fluorescence assay, purified human NAMPT 100 nM, concentration giving half-maximal activation, read-out: Enzymatic EC50; for Enzymatic Emax: fold change of maximal activation compared to DMSO
T1 construct: human enzyme NAMPT (full length)
T1 sequence (P43490 whole entry): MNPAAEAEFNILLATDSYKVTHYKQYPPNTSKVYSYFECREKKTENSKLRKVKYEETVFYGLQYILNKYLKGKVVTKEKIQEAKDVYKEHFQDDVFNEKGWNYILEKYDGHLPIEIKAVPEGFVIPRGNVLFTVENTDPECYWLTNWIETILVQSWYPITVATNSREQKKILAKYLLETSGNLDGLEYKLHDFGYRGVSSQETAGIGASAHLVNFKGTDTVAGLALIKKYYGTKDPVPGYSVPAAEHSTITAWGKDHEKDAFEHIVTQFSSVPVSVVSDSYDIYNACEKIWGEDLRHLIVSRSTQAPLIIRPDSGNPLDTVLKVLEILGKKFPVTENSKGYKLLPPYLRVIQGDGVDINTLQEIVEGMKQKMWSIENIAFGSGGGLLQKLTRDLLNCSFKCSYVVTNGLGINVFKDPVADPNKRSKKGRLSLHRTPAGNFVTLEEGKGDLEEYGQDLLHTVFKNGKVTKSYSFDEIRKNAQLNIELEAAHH
Method in brief: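 Full-length human NAMPT (100 nM) was preincubated 15 min at 37 °C with compound in 50 mM Tris-HCl pH 7.5, 10 mM MgCl2, 2 mM DTT, then reacted 1 h at 37 °C with 50 μM NAM, 100 μM PRPP, 4 mM ATP (stated solution concentrations). NMN was derivatised with acetophenone/KOH then formic acid and read at Ex/Em 382/445 nm; EC50 and Emax (fold over DMSO) reported.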

[2] = tested on: endogenous NAMPT in U2OS cells; assay: Cellular NAD+ modulation assay (NAD/NADH-Glo, U2OS cells); type: cell-based; settings: Homo sapiens, 24 hours incubation, cellular NAD+; for maximal fold induction: read-out: Cellular Emax
Method in brief: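 Endogenous NAMPT stimulation in U2OS cells treated with compound dilution series for 24 h at 37 °C. Cells lysed with DTAB base, acid-treated 15 min at 60 °C, neutralized, NAD+ read by NAD/NADH-Glo luminescence after 40 min at room temperature. EC50 and Emax (fold over DMSO) derived.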

Compound	EC50 [1]	Enzymatic Emax [1]	EC50 [2]	maximal fold induction [2]
Cn1nc(CN2CCC2)c(Cl)c1CC1c2ccccc2C(=O)N1CC1CC2(CNC(=O)O2)C1 (centres unmarked) [Compound 508, 2-((1-((3-(azetidin-1-ylmethyl)-4-chloro-1-methyl-1H-pyrazol-5-yl)methyl)-3-oxoisoindolin-2-yl)methyl)-5-oxa-7-azaspiro[3.4]octan-6-one]	< 500 nM	B (3≥B>2)	500 to 5000 nM	> 1.5
CN1CC(c2nn(C)c(CC3c4ccccc4C(=O)N3CC3CC4(CNC(=O)O4)C3)c2Cl)C1 (centres unmarked) [Compound 509, 2-((1-((4-chloro-1-methyl-3-(1-methylazetidin-3-yl)-1H-pyrazol-5-yl)methyl)-3-oxoisoindolin-2-yl)methyl)-5-oxa-7-azaspiro[3.4]octan-6-one]	< 500 nM	A (A>3)	500 to 5000 nM	> 1.5
Cn1ncc(Cl)c1CC1c2cc(Cl)cc(F)c2C(=O)N1CC1CC2(CNC(=O)O2)C1 (centres unmarked) [Compound 510, 2-((6-chloro-1-((4-chloro-1-methyl-1H-pyrazol-5-yl)methyl)-4-fluoro-3-oxoisoindolin-2-yl)methyl)-5-oxa-7-azaspiro[3.4]octan-6-one]	< 500 nM	A (A>3)	< 500 nM	> 1.5
Cn1ncc(Cl)c1CC1c2c(F)cccc2C(=O)N1CC1CC2(CNC(=O)O2)C1 (centres unmarked) [Compound 511, 2-((3-((4-chloro-1-methyl-1H-pyrazol-5-yl)methyl)-4-fluoro-1-oxoisoindolin-2-yl)methyl)-5-oxa-7-azaspiro[3.4]octan-6-one]	500 to 5000 nM	A (A>3)	< 500 nM	1.2 to 1.5
Cn1ncc(Cl)c1CC1c2cc(CN3CC4(COC4)C3)ccc2C(=O)N1CC1CC2(CNC(=O)O2)C1 (centres unmarked) [Compound 512, 2-((5-((2-oxa-6-azaspiro[3.3]heptan-6-yl)methyl)-3-((4-chloro-1-methyl-1H-pyrazol-5-yl)methyl)-1-oxoisoindolin-2-yl)methyl)-5-oxa-7-azaspiro[3.4]octan-6-one]	500 to 5000 nM	B (3≥B>2)	500 to 5000 nM	> 1.5
COc1ccc(CN2C(=O)c3ccccc3C2Cc2ncccc2Br)cn1 (centres unmarked) [Compound 513, 3-((3-bromopyridin-2-yl)methyl)-2-((6-methoxypyridin-3-yl)methyl)isoindolin-1-one]	500 to 5000 nM	B (3≥B>2)	500 to 5000 nM	> 1.5
Cn1ncc(Cl)c1CC1c2cc(C3CN(C(=O)OC(C)(C)C)C3)ccc2C(=O)N1CC1CC2(CNC(=O)O2)C1 (centres unmarked) [Compound 514, tert-butyl 3-(3-((4-chloro-1-methyl-1H-pyrazol-5-yl)methyl)-1-oxo-2-((6-oxo-5-oxa-7-azaspiro[3.4]octan-2-yl)methyl)isoindolin-5-yl)azetidine-1-carboxylate]	500 to 5000 nM	A (A>3)	500 to 5000 nM	> 1.5
Cn1ncc(Cl)c1CC1c2ccccc2C(=O)N1C/C(F)=C\c1c[nH]nn1 (centres unmarked) [Compound 515, (E)-3-((4-chloro-1-methyl-1H-pyrazol-5-yl)methyl)-2-(2-fluoro-3-(1H-1,2,3-triazol-4-yl)allyl)isoindolin-1-one]	≥ 5000 nM	B (3≥B>2)	500 to 5000 nM	> 1.5
Cn1ncc(Cl)c1CC1c2ccccc2C(=O)N1C/C=C/c1nn[nH]c1F (centres unmarked) [Compound 516, (E)-3-((4-chloro-1-methyl-1H-pyrazol-5-yl)methyl)-2-(3-(5-fluoro-1H-1,2,3-triazol-4-yl)allyl)isoindolin-1-one]	< 500 nM	B (3≥B>2)	< 500 nM	> 1.5
COc1ccc(CN2C(=O)c3ccccc3C2Cc2c(Cl)cnn2C)cc1F (centres unmarked) [Compound 517, 3-((4-chloro-1-methyl-1H-pyrazol-5-yl)methyl)-2-(3-fluoro-4-methoxybenzyl)isoindolin-1-one]	500 to 5000 nM	B (3≥B>2)	< 500 nM	1.2 to 1.5
COc1ccc(CN2C(=O)c3ccccc3C2Cc2c(Cl)cnn2C)cc1 (centres unmarked) [Compound 518, 3-((4-chloro-1-methyl-1H-pyrazol-5-yl)methyl)-2-(4-methoxybenzyl)isoindolin-1-one]	500 to 5000 nM	B (3≥B>2)	< 500 nM	1.2 to 1.5
Cn1ncc(Cl)c1CC1c2ccccc2C(=O)N1C/C(F)=C/c1c[nH]nc1Cl (centres unmarked) [Compound 519, (Z)-3-((4-chloro-1-methyl-1H-pyrazol-5-yl)methyl)-2-(3-(3-chloro-1H-pyrazol-4-yl)-2-fluoroallyl)isoindolin-1-one]	500 to 5000 nM	B (3≥B>2)	500 to 5000 nM	> 1.5
Cn1ncc(Cl)c1CC1c2cc(F)ccc2C(=S)N1CC1CC2(CNC(=O)O2)C1 (centres unmarked) [Compound 521, 2-((3-((4-chloro-1-methyl-1H-pyrazol-5-yl)methyl)-5-fluoro-1-thioxoisoindolin-2-yl)methyl)-5-oxa-7-azaspiro[3.4]octan-6-one]	< 500 nM	B (3≥B>2)	500 to 5000 nM	> 1.5
Cn1nc(CN2CCOCC2)c(Cl)c1CC1c2ccccc2C(=O)N1CC1CC2(CNC(=O)O2)C1 (centres unmarked) [Compound 522, 2-((1-((4-chloro-1-methyl-3-(morpholinomethyl)-1H-pyrazol-5-yl)methyl)-3-oxoisoindolin-2-yl)methyl)-5-oxa-7-azaspiro[3.4]octan-6-one]	500 to 5000 nM	B (3≥B>2)	500 to 5000 nM	> 1.5
CN(C)CCOc1nn(C)c(CC2c3ccccc3C(=O)N2CC2CC3(CNC(=O)O3)C2)c1Cl (centres unmarked) [Compound 523, 2-((1-((4-chloro-3-(2-(dimethylamino)ethoxy)-1-methyl-1H-pyrazol-5-yl)methyl)-3-oxoisoindolin-2-yl)methyl)-5-oxa-7-azaspiro[3.4]octan-6-one]	< 500 nM	C (2≥C)	500 to 5000 nM	> 1.5
Cn1ncc(Cl)c1CC1c2cc(Cl)ncc2C(=O)N1CC1CC2(CNC(=O)O2)C1 (centres unmarked) [Compound 524, 2-((6-chloro-1-((4-chloro-1-methyl-1H-pyrazol-5-yl)methyl)-3-oxo-1,3-dihydro-2H-pyrrolo[3,4-c]pyridin-2-yl)methyl)-5-oxa-7-azaspiro[3.4]octan-6-one]	≥ 5000 nM	C (2≥C)	500 to 5000 nM	> 1.5
Cc1nc(Cl)c(CC2c3ccccc3C(=O)N2CC2CC3(CNC(=O)O3)C2)n1C (centres unmarked) [Compound 526, 2-((1-((4-chloro-1,2-dimethyl-1H-imidazol-5-yl)methyl)-3-oxoisoindolin-2-yl)methyl)-5-oxa-7-azaspiro[3.4]octan-6-one]	500 to 5000 nM	B (3≥B>2)	500 to 5000 nM	> 1.5
Cc1nn(C)c(CC2c3ccccc3C(=O)N2CC2CC3(CNC(=O)O3)C2)c1Cl (centres unmarked) [Compound 527, 2-((1-((4-chloro-1,3-dimethyl-1H-pyrazol-5-yl)methyl)-3-oxoisoindolin-2-yl)methyl)-5-oxa-7-azaspiro[3.4]octan-6-one]	< 500 nM	B (3≥B>2)	< 500 nM	> 1.5
[2H]C1([2H])NC(=O)OC12CC(CN1C(=O)c3ccccc3C1Cc1c(Cl)cnn1C)C2 (centres unmarked) [Compound 535, 2-((1-((4-chloro-1-methyl-1H-pyrazol-5-yl)methyl)-3-oxoisoindolin-2-yl)methyl)-5-oxa-7-azaspiro[3.4]octan-6-one-8,8-d2]	500 to 5000 nM	A (A>3)	< 500 nM	> 1.5
O=C1NCC2(CC(CN3C(=O)c4ccccc4C3Cc3nnsc3Cl)C2)O1 (centres unmarked) [Compound 538, 2-((1-((5-chloro-1,2,3-thiadiazol-4-yl)methyl)-3-oxoisoindolin-2-yl)methyl)-5-oxa-7-azaspiro[3.4]octan-6-one]	≥ 5000 nM	C (2≥C)	500 to 5000 nM	> 1.5
Cn1ncc(Cl)c1CC1c2ccccc2C2(CC2)N1CC1CC2(CNC(=O)O2)C1 (centres unmarked) [Compound 539, 2-((3′-((4-chloro-1-methyl-1H-pyrazol-5-yl)methyl)spiro[cyclopropane-1,1′-isoindolin]-2′-yl)methyl)-5-oxa-7-azaspiro[3.4]octan-6-one]	≥ 5000 nM	B (3≥B>2)	500 to 5000 nM	1.2 to 1.5
Cn1ncc(Cl)c1CC1c2ccccc2S(=O)(=O)N1CC1CC2(CNC(=O)O2)C1 (centres unmarked) [Compound 540, 2-((3-((4-chloro-1-methyl-1H-pyrazol-5-yl)methyl)-1,1-dioxidobenzo[d]isothiazol-2(3H)-yl)methyl)-5-oxa-7-azaspiro[3.4]octan-6-one]	< 500 nM	B (3≥B>2)	< 500 nM	> 1.5
Cn1ncc(Cl)c1CC1c2cc(OC(F)F)ccc2C(=O)N1CC1CC2(CNC(=O)O2)C1 (centres unmarked) [Compound 541, 2-((3-((4-chloro-1-methyl-1H-pyrazol-5-yl)methyl)-5-(difluoromethoxy)-1-oxoisoindolin-2-yl)methyl)-5-oxa-7-azaspiro[3.4]octan-6-one]	500 to 5000 nM	B (3≥B>2)	< 500 nM	> 1.5
